Data as given in patent US9447026B2, “Bicyclic analgesic compounds” (KALYRA PHARMACEUTICALS, INC., priority 2013, dated 2016).

Key:
male ICR mice = test: Formalin Paw Test; assay type: in vivo
Protocol: One test compound or the vehicle was administered to each mouse in each test group (8 mice per group). Non-fasted male ICR mice weighing 23±3 g were used. Compounds of Formula (I) were administered at a concentration of 3 mg/kg, 10 mg/kg, 15 mg/kg, 30 mg/kg, 60 mg/kg, 100 mg/kg, 200 mg/kg or 300 mg/kg; morphine was administered at a concentration of 5 mg/kg; and acetaminophen was administered at a concentration of 200 mg/kg. The control group received the vehicle (5% DMSO/40% PEG400/20% HPbCD/Saline). After 30 or 60 minutes, a 2% formalin solution (0.02 mL) was injected into one hind paw (sub-plantar) of each mouse. Responses were measured every 5 minutes after the formalin injection for 35 minutes.

[1] = tested on: pooled human liver microsomes; test: Glutathione Conjugation Assay; assay type: in vitro ADME; conditions: 100 μM test compound, 1 mM glutathione, NADPH, 60 mins at 37° C.
Protocol: An incubation mixture consisting of 5 μL of 10 mM test compound in DMSO (5 μL of DMSO for negative control; 5 μL of 10 mM acetaminophen in DMSO for positive control), 5 μL of 0.1 M glutathione 25 mM EDTA in water, 50 μL of 100 mM MgCl2 in water, 50 μL of 20 mg/mL pooled human liver microsomes (P-450 content: ˜0.5 nmol/mg protein), and 340 μL of 100 mM potassium phosphate buffer (pH 7.4) was preincubated at 37° C. for 10 mins. The reaction was initiated by the addition of 50 μL of 100 mM NADPH solution. The final incubation volume was 0.5 mL. The incubation mixture contains 100 μM test compound or acetaminophen (positive control), 1 mM glutathione, and 1 μM P450. After 60 mins incubation at 37° C., 1 mL of chilled acetonitrile was added to stop the reaction. After the addition of acetonitrile, the sample was vortexed and centrifuged. The supernatant was collected, concentrated in TurboVap under N2 (10 psi) at 30° C. for 35 mins, and transferred to a 96-well plate. The plate was capped and centrifuged. The supernatant was injected for LC-MS/MS analysis.
As a result, one skilled in the art would not expect compounds of Formula (I) to form the reactive metabolite NAPQI. A 129 neutral loss scan can be used to search or detect the formation of glutathione conjugates.

[2] = 200 mg/kg, administered 30 minutes before formalin injection, acetaminophen 200 mg/kg, FIG. 5

| SMILES | amount less than the amount of acetaminophen needed to achieve the approximate same pain response (male ICR mice; 60 mg/kg vs 200 mg/kg acetaminophen) | efficacy compared to acetaminophen, after 25 minutes (male ICR mice; [2]) | pain response compared to acetaminophen, initial 25 minutes (male ICR mice; [2]) | dosage providing a pain response approximately equal to 200 mg/kg of acetaminophen (male ICR mice; dosages ranging from 3 mg/kg to 100 mg/kg, FIG. 9) [mg/kg] | pain response compared to acetaminophen, entire testing period (male ICR mice; given 60 minutes prior to formalin injection, FIG. 10) | formation of reactive metabolite NAPQI [1] | glutathione conjugate peak (129 neutral loss scan, LC-MS/MS) [1] | compound dose as percent of acetaminophen dose giving a lower pain response (male ICR mice; 60 mg/kg vs 200 mg/kg acetaminophen, tonic phase) | duration of decrease in pain response (phases) (male ICR mice; 200 mg/kg, administered 30 minutes before formalin injection, FIG. 4) | pain response compared to acetaminophen and morphine (male ICR mice; 200 mg/kg, administered 30 minutes before formalin injection, morphine 5 mg/kg, acetaminophen 200 mg/kg, FIG. 4) | efficacy compared to acetaminophen, acute phase (male ICR mice; all dosages ranging from 15 mg/kg to 200 mg/kg, FIG. 8) | pain response compared to acetaminophen (male ICR mice; dosage 200 mg/kg, FIG. 8) | dose needed to reduce the pain response to a level less than 200 mg/kg of acetaminophen (male ICR mice; tonic phase, FIG. 8) [mg/kg] |
| --- | --- | --- | --- | --- | --- | --- | --- | --- | --- | --- | --- | --- | --- |
| CC(=O)NC12CC(C1)C2 [compound 4, N-(bicyclo[1.1.1]pentan-1-yl)acetamide] | about 33% | increased efficacy compared to acetaminophen | reduces the pain response in a manner similar to acetaminophen for the initial 25 minutes | 60 | reduces the pain response in a manner similar to acetaminophen throughout the entire testing period | NAPQI was not formed | no glutathione conjugate peak was observed | – | – | – | – | – | – |
| CC(=O)NC12CC(NC(C)=O)(C1)C2 [compound 10, N,N′-(bicyclo[1.1.1]pentane-1,3-diyl)diacetamide] | – | – | – | – | – | NAPQI was not formed | no glutathione conjugate peak was observed | about 33% | lasted through both the early/acute phase (0-5 minutes) and the late/tonic phase (20-35 minutes) | significantly decreased the pain response compared to both acetaminophen and morphine | equal to or significant increased efficacy compared to acetaminophen | approximately 50% | 60 |
